Patent US20220072036A1, “METHOD FOR INHIBITING CORONAVIRUS AND METHOD FOR TREATING DISEASE ASSOCIATED WITH CORONAVIRUS INFECTION” (AMAZING FORTUNE CO., LTD., priority 2020, published 2022)

Key:
[1] = target: SARS-CoV-2 papain-like protease (PLPro) (Severe acute respiratory syndrome coronavirus 2, UniProt P0DTD1); type: biochemical; settings: SARS-CoV2 PLPro 0.9 μM, 30 min preincubation, FG6-pNA substrate, 30° C., 300 seconds; inhibitor concentrations per Table 1; mean±standard deviation
[2] = test system: CC(C)C[C@H](NC(=O)[C@H](CCCNC(=N)N)NC(=O)[C@@H](N)Cc1ccccc1)C(=O)N[C@@H](CCCCN)C(=O)NCC(=O)NCC(=O)Nc1ccc([N+](=O)[O-])cc1; assay: purified protein, by the assay type; settings: pH 7.4; 30.0 °C

Row | Compound | Inhibition percentage [1] [%] | Km [2] [µM] | kcat [2] [s⁻¹]
1 | [Mg+2] [Comparative Group 2] | 13.99 ± 0.11 |  | 
2 | [Zn+2] [Comparative Group 3] | 19.83 ± 0.88 |  | 
3 | SARS-CoV-2 PLpro (Severe acute respiratory syndrome coronavirus 2) |  | 2500 ± 30 | 0.85 ± 0.01
